Results on four molecules are retold here after patent publication US20090270495A1, “Inhibitors of Phosphodiesterase Types 1 To 5 Based on Dioclein, Floranol, and Analogs Thereof” (priority 2005, published 2009).

Data set [1] deals with PDE5 (Homo sapiens, UniProt O76074). The note with it: cited from earlier work.
The test system of data set [2] is PDE1. The note with it: cited from earlier work.
Data set [3] concerns human saphenous vein. As to the kind of experiment: Vasodilating effect on human saphenous vein pre-contracted with phenylephrine. The conditions noted are these: for IC50: phenylephrine 3×10^−6M. As to the method: FIG. 2 represent the vasodilating effect of dioclein in the human saphenous vein, pre-contracted with phenylephrine (3×10^−6M) in the presence or absence of functional endothelium. The relaxation data represent the percentage of reduction of the contraction by phenylephrine in response to dioclein and have been expressed on average±SEM. *P<0.05 (two-way ANOVA with post-test comparison BONFERRONI. The vessels of 8 patients with and 8 without functional endothelium were analyzed.
The data represent the percentage of reduction of the contraction by phenylephrine in response to dioclein and have been expressed average±SEM. *P<0.05. ***P<0.001 (two-way ANOVA with post-test comparison BONFERRONI). One has analyzed 8 vessels of the control group, 5 vessels of the group incubated with H-89.
FIG. 4 illustrates the effect of Rp-8-pCPT cGMPS (10 μM) on the relaxation induced by dioclein on the human saphenous vein without functional endothelium, pre-contracted with phenylephrine (3×10^−6M). The data represent the percentage of reduction of the contraction with phenylephrine in response to dioclein and have been expressed in average±SEM. ***P<0.001 (two-way ANOVA with post-test comparison of BONFERRONI). One has analyzed 8 vessels of the control group and 5 vessels of the group incubated with Rp-8-pCPT cGMPS.
The data represent the percentage of reduction of the contraction with phenylephrine in response to dioclein and have been expressed in average±SEM. One has analyzed 8 vessels of the dioclein group, 7 vessels of the 8-MM-IBMX group and 9 vessels of the vinpocetine group.
FIG. 2 illustrates the effect of the flavonoids of the present invention on the human saphenous vein. […] FIG. 3 illustrates the effect of dioclein on the human saphenous vein without functional endothelium, in the absence and in the presence of an inhibitor selective of protein Kinase A, which is the intracellular receptor of AMPc.

Data set [4] concerns arterial pressure of mice. As to the kind of experiment: Hypotensor effect on arterial pressure of mice. The data set is classed as in vivo. The conditions noted are these: dissolved with DMSO. How it is done:
FIG. 7 is a representative example of the effect of dioclein (2.5 mg/kg) and of the inclusion product of dioclein in cyclodextrin (inclusion: 2.5 mg/kg), applied by intraperitoneal route, on the arterial pressure of mice. In the highlight we can see the average±SEM of the maximum effect achieved on 6 different mice. In these experiments dioclein and the inclusion product of dioclein in the cyclodextrin were dissolved with the aid of DMSO.
FIG. 8 is a representative example of the effect of dioclein (10 mg/kg) and of the inclusion product of dioclein in cyclodextrin (inclusion: 10 mg/kg), applied by oral route, on the arterial pressure of mice. In the highlight one can see the average±SEM of maximum effect achieve in 3 different mice. In this experiments dioclein and the inclusion product of dioclein in cyclodextrin were dissolved with the aid of DMSO.
FIG. 9 is a representative example of the effect of the inclusion product of dioclein in cyclodextrin (inclusion; 10 mg/kg), solubilized in water, applied by oral route, on the arterial pressure of mice.
FIG. 7 illustrates the effect of dioclein and of dioclein included in cyclodextrin, dissolved with the aid of DMSO on the arterial pressure of mice. […] FIG. 8 illustrates the effect of dioclein and of dioclein included in cyclodextrin dissolved with the aid of DMSO on the arterial pressure of mice when applied by oral route (gavage). […]

Data set [5] has as its system PDE4. As to the kind of experiment: PDE4 inhibition, enzyme isolated from smooth muscle of ox aorta. Type of data set: biochemical.
Data set [6] deals with T1, PDE2 (Homo sapiens, UniProt O00408).
T1 construct: on the PDE2 isolated from human platelets; from tissue; host or cells: human platelets
T1 sequence (O00408 whole entry): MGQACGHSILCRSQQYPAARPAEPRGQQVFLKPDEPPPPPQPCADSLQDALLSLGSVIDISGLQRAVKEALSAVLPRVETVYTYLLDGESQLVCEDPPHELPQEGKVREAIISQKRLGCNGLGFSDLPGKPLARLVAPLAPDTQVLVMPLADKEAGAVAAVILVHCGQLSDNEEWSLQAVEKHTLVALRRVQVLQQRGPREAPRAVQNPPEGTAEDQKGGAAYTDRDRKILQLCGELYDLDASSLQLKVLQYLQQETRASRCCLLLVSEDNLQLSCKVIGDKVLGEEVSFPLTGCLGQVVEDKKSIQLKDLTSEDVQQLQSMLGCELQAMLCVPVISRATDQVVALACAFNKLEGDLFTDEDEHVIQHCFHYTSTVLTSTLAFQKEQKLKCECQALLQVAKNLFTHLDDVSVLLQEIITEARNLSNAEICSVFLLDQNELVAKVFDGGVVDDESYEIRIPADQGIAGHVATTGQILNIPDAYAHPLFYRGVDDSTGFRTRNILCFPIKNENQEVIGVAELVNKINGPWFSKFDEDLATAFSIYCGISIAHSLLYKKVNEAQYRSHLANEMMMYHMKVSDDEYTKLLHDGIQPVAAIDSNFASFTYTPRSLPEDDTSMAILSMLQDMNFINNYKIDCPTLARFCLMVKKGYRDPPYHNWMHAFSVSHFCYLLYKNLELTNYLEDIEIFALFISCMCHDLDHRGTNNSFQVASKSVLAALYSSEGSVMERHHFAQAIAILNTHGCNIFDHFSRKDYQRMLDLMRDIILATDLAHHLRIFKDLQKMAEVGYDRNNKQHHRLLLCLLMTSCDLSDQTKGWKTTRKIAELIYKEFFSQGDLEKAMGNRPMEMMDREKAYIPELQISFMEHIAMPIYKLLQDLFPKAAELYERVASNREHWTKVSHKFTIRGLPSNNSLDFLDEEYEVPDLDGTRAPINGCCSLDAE
As to the kind of experiment: PDE2 inhibition, enzyme isolated from human platelets. The data set is classed as biochemical.

Data set [7] in a line: Solubility. Type of data set: physicochemical.
Data set [8] concerns T2, PDE1.
T2 construct: IC50 PDE1 − calmodulin; other: without calmodulin; Ki PDE1 − calmodulin; other: with calmodulin; Ki PDE1 + calmodulin; other: versus literature value of 8-MM-IBMX; times more pot
As to the kind of experiment: PDE1 inhibition, enzyme isolated from smooth muscle of ox aorta. Type of data set: biochemical.

Data set [9] deals with PDE1. Described as above. The data set is classed as biochemical. The note with it: PDE1 versus PDE2-PDE5.
Data set [10] concerns the target T3, PDE5 (Bos taurus, UniProt Q28156).
T3 construct: isolated from the smooth muscle of ox aorta; from tissue; host or cells: smooth muscle of ox aorta
As to the kind of experiment: PDE5 inhibition, enzyme isolated from smooth muscle of ox aorta. The data set is classed as biochemical.

The target in data set [11] is T4, PDE3 (Bos taurus, UniProt A0A3Q1M1E8).
T4 sequence (A0A3Q1M1E8 1-1126): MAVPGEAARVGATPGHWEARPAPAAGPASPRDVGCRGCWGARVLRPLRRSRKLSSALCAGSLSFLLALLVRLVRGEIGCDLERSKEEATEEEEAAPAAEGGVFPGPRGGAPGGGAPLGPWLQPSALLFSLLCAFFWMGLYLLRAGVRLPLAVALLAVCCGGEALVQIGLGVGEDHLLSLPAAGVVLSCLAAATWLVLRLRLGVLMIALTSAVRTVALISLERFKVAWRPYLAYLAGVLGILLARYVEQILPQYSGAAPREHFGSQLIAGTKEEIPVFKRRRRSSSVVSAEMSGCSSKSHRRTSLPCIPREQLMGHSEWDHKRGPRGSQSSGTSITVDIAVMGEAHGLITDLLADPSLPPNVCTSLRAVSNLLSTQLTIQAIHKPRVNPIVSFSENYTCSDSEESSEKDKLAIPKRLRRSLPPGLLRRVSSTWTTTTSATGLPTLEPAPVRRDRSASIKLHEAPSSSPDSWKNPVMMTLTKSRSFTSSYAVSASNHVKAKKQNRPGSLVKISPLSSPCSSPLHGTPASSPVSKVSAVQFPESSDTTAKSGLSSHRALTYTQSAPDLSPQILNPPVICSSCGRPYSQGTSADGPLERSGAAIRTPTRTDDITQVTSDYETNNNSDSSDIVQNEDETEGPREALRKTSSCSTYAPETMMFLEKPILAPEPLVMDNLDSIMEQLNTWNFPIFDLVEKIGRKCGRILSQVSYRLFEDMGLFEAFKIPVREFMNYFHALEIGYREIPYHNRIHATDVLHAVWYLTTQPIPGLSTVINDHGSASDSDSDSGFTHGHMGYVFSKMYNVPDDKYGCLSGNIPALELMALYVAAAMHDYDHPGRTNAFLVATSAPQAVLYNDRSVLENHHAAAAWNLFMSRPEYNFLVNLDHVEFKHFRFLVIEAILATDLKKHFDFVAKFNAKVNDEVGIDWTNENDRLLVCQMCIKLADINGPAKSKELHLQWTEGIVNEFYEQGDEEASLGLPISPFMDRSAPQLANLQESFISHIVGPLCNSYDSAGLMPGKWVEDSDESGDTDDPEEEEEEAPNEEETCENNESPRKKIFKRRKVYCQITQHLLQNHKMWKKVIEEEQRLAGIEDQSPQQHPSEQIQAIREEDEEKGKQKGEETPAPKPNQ
As to the kind of experiment: PDE3 inhibition, enzyme isolated from smooth muscle of ox aorta. The data set is classed as biochemical.

For data set [12], the target named is potassium channels of the type sensitive to high-conductance calcium (Homo sapiens, UniProt Q12791). The note with it: cited from earlier work.
Sequence of potassium channels of the type sensitive to high-conductance calcium (Q12791 whole entry): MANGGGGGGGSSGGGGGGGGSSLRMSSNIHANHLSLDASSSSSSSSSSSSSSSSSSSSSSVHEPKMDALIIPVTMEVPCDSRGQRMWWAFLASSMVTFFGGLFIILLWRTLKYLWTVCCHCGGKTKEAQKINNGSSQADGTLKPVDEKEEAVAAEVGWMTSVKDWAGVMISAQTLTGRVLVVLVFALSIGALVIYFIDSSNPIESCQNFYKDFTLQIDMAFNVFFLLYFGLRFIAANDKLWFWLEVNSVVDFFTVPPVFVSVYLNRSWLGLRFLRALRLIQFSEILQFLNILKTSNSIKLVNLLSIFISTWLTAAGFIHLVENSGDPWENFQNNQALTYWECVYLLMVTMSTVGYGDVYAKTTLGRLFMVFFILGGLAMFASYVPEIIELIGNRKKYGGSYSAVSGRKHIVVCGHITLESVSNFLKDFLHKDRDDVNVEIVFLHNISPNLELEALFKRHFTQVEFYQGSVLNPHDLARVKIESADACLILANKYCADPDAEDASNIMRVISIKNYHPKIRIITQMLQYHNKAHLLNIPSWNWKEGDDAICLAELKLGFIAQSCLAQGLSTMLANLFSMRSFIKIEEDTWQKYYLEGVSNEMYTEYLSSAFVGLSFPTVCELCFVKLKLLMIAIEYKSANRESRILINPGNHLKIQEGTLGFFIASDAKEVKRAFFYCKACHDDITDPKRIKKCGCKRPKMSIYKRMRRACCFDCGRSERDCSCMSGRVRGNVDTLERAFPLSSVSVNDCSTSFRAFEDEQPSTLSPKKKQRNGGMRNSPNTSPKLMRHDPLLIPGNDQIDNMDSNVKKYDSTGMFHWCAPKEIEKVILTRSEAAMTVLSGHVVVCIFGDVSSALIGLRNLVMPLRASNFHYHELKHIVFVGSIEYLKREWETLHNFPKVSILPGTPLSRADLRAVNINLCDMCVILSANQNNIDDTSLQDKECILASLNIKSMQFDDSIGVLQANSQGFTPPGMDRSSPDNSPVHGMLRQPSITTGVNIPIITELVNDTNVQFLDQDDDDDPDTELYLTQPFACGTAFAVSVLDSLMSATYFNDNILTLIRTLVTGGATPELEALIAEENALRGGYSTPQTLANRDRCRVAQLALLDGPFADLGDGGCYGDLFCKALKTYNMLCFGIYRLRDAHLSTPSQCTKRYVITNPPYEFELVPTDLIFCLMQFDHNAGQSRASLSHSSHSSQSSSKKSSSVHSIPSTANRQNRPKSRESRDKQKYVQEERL
Data set [13] deals with PDE7 (Homo sapiens, UniProt Q9NP56). The conditions noted are these: at the same concentrations (higher than 30 μM); cited from earlier work.
Sequence of PDE7 (Q9NP56 whole entry): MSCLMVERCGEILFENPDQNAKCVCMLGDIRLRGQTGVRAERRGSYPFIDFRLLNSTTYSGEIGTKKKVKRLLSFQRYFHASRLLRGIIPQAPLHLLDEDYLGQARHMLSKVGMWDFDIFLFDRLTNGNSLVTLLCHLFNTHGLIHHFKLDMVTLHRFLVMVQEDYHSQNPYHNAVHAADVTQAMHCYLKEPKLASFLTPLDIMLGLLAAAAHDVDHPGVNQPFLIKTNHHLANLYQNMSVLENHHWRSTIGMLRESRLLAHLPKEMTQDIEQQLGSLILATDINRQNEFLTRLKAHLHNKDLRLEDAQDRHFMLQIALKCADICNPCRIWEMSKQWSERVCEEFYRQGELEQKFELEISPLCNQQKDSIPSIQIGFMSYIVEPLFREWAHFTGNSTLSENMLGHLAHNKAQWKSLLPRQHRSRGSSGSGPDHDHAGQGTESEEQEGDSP
Data set [14] deals with PDE1 of bovine tissue. The note with it: cited from earlier work.
[15] abbreviates: without functional endothelium, read-out: Cl50 of vasodilating effect, absence of functional endothelium.
Setting [16] is: activated, +GMPc, read-out: IC50 Activated PDE2 (+GMPc).
Setting [17] is: basal, read-out: IC50 Basal PDE2.
Where [18] appears, read: without calmodulin, read-out: IC50 PDE1 − calmodulin.

Molecules are shown by their SMILES. “And” between values parts separate entries of the source, which are not always exact repeats. Equal entries are not always repeated. “Also recorded” adds a separate entry of the source. Where two headings read alike, the source gives them in different places.

`COCc1nc2c([nH]1)c(=O)n(C)c(=O)n2CC(C)C` [8-MM-IBMX, 8-methoxymethyl-IBMX]: the IC50 in [1] was 10 µM; in data set [2] it was 8 µM; in [3] (setting [15]), 30.9 ± 16 µM.
Take `COc1cc2c(c(O)c1OC)C(=O)CC(c1cc(O)ccc1O)O2` (stereo not shown) [Dioclein, 5, 2′,5′-trihydroxy-6,7-dimethoxyflavanone]: the “effect on arterial pressure, intraperitoneal route” value in data set [4] (2.5 mg/kg i.p.) is “reduced the arterial pressure of mice”. Moreover, the “effect on arterial pressure, oral route (gavage), DMSO” value in data set [4] (10 mg/kg oral) is on record as “not active via oral route”. Besides, the IC50 in [5] is 16.8 ± 1.42 µM; in data set [6] (setting [16]), 38.2 ± 8.92 µM; in [6] (setting [17]), 100 ± 0.5 µM; in [3] (Homo sapiens, with functional endothelium, read-out: Cl50 of vasodilating effect, presence of functional endothelium), 3 ± 0.2 µM; in data set [3] (Homo sapiens, without functional endothelium, read-out: Cl50 of vasodilating effect, absence of functional endothelium) it was 11 ± 0.4 µM; in data set [3] (setting [15]), 11.1 ± 2.7 µM. For the same molecule, the IC50 in data set [8] (calmodulin state not stated in text, listed as dioclein, read-out: IC50 of inhibitory effect on PDE1 (running text)) was 1.44 ± 0.35 µM; in data set [8] (calmodulin state not stated in text, read-out: IC50 of inhibitory effect on PDE1 (running text)) it was 1.4 µM; in [8] (setting [18]), 2.47 ± 0.26 µM; in data set [10], 23 ± 5.5 µM. In addition, the “solubility in DMSO and methanol” value in data set [7] (DMSO, methanol) was “soluble in DMSO and methanol”. Moreover, in data set [7] (water), the solubility in water result is recorded as “insolubility in water; also recorded: low solubility in water; also recorded: very low solubility in water”. In data set [3] (without functional endothelium, H-89 1 μM), the “vasodilating effect in the presence of H-89 (protein kinase A inhibitor)” value is given as “displaced to the right”. In addition, the “times more potent than 8-MM-IBMX (PDE1)” value in data set [8] (versus literature value of 8-MM-IBMX) is reported as 8 times. The “times more potent than vinpocetine (PDE1)” value in [8] (versus literature value of vinpocetine) is reported as “about 30 times”. Further, the Ki is 0.59 µM in [8] (with calmodulin) and 0.62 µM in data set [8] (without calmodulin). Besides, in [9], the “selectivity: PDE1 inhibited at concentrations times smaller than for PDE2, PDE3, PDE4 and PDE5” value was 20 to 100 times and 20-100 times.
In the case of `COc1c(O)c(CC=C(C)C)c2c(c1O)C(=O)[C@H](O)[C@@H](c1ccccc1O)O2` [Floranol], the IC50 in data set [5] worked out at 11 ± 2.31 µM; in data set [6] (setting [16]), 65.3 ± 6.87 µM; in [6] (setting [17]), 26.8 ± 4.62 µM; in data set [11] it was 47.1 ± 5.25 µM; in data set [8] (with calmodulin, read-out: IC50 PDE1 + calmodulin), 3.06 ± 0.14 µM; in data set [8] (setting [18]), 2.75 ± 0.2 µM. For the same molecule, the IC50 in data set [10] is 7.14 µM.
On to `CCOC(=O)C1=C[C@]2(CC)CCCN3CCc4c(n1c1ccccc41)[C@@H]32` [Vinpocetine], for which the “direct activation of potassium channels” value in data set [12] was “capable of directly activating potassium channels”. Also, in data set [13], the PDE7 inhibition result is reported as “inhibits PDE7”. For the same molecule, the maximum vasodilating effect in [3] (without functional endothelium) came to 30%. Moreover, the “concentrations showing inhibitory effect on PDE1” value in data set [14] is reported as “higher than 30 μM”.

As a reminder, the Ki is the dissociation constant of the complex between target and ligand, obtained from inhibition or displacement.
